Source: ChEMBL document CHEMBL4619732, “Two new secondary metabolites, saccharochlorines A and B, from a marine bacterium Saccharomonospora sp. KCTC-19160” (Bioorg Med Chem Lett, 2020)
The source made the active and inactive calls. No cut-off for these calls is given here.

Experiments:
SH-SY5Y [1] = experiment: Induction of amyloid beta (1 to 42) secretion in human SH-SY5Y cells incubated for overnight by ELISA; type: functional, cell-based
H4 [2] = experiment: Induction of amyloid beta (1 to 40) secretion in human H4 cells overexpressing APP incubated for overnight by ELISA; type: functional, cell-based
H4 [3] = experiment: Induction of amyloid beta (1 to 42) secretion in human H4 cells overexpressing APP incubated for overnight by ELISA; type: functional, cell-based
Homo sapiens = species on record: Homo sapiens; experiment: Inhibition of monoamine oxidase (unknown origin)
SH-SY5Y [4] = experiment: Induction of amyloid beta (1 to 40) secretion in human SH-SY5Y cells incubated for overnight by ELISA; type: functional, cell-based

Row | inhibition (Homo sapiens) | Compound | Activity (SH-SY5Y [1]) | Activity (H4 [2]) | Activity (H4 [3]) | Activity (SH-SY5Y [4])
1 | inactive | CO/C(=C\c1ccc(O)c(Cl)c1)C(=O)O | inactive | Dose-dependent effect | Dose-dependent effect | inactive
2 | inactive | CO/C(=C\c1cc(Cl)c(O)c(Cl)c1)C(=O)O | inactive | Dose-dependent effect | Dose-dependent effect | inactive
